Like-named read-outs stand apart in the source and are kept apart here.
Legend:
VEGFR-2 [1] = target: T1, VEGFR-2 (Homo sapiens, UniProt P35968); assay: cell-based; assay type: cell-based; conditions: for inhibition at 10 µM: MCF7; for VEGFR-2 pg/mL ± SEM MCF7: at 10 μM, control 258.70 ± 2.3
T1 construct: endogenous in cells; host or cells: HCT116, PaCa2, MCF7 (human cancer cell lines, ATCC origin)

TNF-α [2] = assay: TNF-α inhibitory properties (ELISA), PaCa2 cell lysate; assay type: cell-based, human; conditions: at 10 μM; for TNF-α pg/mL (± SEM) PaCa2: control 111.8 ± 2.0
COX-1 = target: T2, COX-1 (Ovis aries, UniProt P05979); assay: biochemical; conditions: 3 replicates, read-out: % Inhibition of COX-1 ± SEM
T2 construct: purchased BioVision incorporated USA K548–100
T2 sequence (P05979 25-600): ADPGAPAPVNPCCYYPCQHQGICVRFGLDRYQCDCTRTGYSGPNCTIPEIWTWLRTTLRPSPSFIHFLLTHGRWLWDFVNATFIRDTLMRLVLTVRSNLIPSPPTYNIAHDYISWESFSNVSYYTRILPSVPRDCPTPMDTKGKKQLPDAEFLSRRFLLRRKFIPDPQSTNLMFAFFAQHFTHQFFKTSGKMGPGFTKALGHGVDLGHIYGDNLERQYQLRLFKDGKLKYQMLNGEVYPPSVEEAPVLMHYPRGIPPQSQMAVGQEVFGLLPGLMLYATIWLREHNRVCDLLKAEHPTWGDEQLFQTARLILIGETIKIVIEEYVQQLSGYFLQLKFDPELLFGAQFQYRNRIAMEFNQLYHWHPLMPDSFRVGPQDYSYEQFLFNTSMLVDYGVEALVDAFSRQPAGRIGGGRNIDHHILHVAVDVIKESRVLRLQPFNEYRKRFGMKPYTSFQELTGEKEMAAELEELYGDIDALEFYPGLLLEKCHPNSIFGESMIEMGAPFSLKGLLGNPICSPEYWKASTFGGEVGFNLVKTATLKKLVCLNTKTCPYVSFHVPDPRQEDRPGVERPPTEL

TNF-α [3] = assay: TNF-α inhibitory properties (ELISA), MCF7 cell lysate; assay type: cell-based, human; conditions: at 10 μM; for TNF-α pg/mL (± SEM) MCF7: control 83.26 ± 1.1
[4] = tested on: MCF7 (breast) cancer cell line; assay: 2D-monolayer antiproliferation (MTT) against MCF7; assay type: cell-based, human; conditions: for IC50: Homo sapiens, MTT, 72 h incubation, MCF7 breast, read-out: IC50, μM ± SEM MCF7; for SI (selectivity index) MCF7: IC50 of RPE1 normal cell/IC50 of MCF7
[5] = tested on: HCT116 (colon) cancer cell line; assay: 2D-monolayer antiproliferation (MTT) against HCT116; assay type: cell-based, human; conditions: for IC50: Homo sapiens, HCT-116; for SI (selectivity index) HCT116: IC50 of RPE1 normal cell/IC50 of HCT116
[6] = tested on: A549 (lung) cancer cell line; assay: 2D-monolayer antiproliferation (MTT) against A549; assay type: cell-based, human; conditions: for IC50: Homo sapiens, MTT, 72 h incubation, A549 lung, read-out: IC50, μM ± SEM A549; for SI (selectivity index) A549: IC50 of RPE1 normal cell/IC50 of A549
[7] = tested on: PaCa2 (pancreatic) cancer cell line; assay: 2D-monolayer antiproliferation (MTT) against PaCa2; assay type: cell-based, human; conditions: for 1/(observed property): 1/observed IC50 (μM), PaCa2; for IC50: Homo sapiens, PaCa-2, MTT, 72 h incubation, PaCa2 pancreatic, read-out: IC50, μM ± SEM PaCa2; for SI (selectivity index) PaCa2: IC50 of RPE1 normal cell/IC50 of PaCa2
[8] = tested on: RPE1 (normal human immortalized retinal pigment epithelial cell line); assay: cells; assay type: cell-based; conditions: Homo sapiens, RPE-1; MTT, normal RPE1 cell; read-out: IC50, μM ± SEM RPE1
VEGFR-2 [9] = target: T1, VEGFR-2; assay: cell-based; assay type: cell-based; conditions: for inhibition at 10 µM: HCT-116, HCT116; for VEGFR-2 pg/mL ± SEM HCT116: at 10 μM, control 317.80 ± 3.5
COX-2 = target: T3, COX-2 (Homo sapiens, UniProt P35354); assay: biochemical; conditions: for inhibition at 10 µM: 3 replicates, read-out: % Inhibition of COX-2 ± SEM; for SI (selectivity index, COX-2/COX-1): at 10 μM
T3 construct: purchased BioVision incorporated USA K548–100
T3 sequence (P35354 18-604): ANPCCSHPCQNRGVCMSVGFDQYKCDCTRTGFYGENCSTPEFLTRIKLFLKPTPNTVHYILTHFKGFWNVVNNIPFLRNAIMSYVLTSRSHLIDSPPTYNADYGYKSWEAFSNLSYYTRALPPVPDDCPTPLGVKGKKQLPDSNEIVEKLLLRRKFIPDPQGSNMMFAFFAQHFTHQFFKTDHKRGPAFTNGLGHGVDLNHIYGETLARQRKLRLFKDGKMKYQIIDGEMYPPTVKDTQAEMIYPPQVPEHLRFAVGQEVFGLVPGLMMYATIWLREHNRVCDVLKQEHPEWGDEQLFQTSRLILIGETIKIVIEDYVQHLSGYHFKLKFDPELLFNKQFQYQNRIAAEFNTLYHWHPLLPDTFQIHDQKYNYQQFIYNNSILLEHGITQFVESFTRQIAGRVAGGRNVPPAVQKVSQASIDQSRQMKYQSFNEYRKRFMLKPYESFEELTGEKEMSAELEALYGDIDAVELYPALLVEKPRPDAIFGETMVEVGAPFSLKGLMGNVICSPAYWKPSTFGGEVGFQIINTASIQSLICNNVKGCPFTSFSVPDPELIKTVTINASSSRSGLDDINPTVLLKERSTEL

TNF-α [10] = assay: TNF-α inhibitory properties (ELISA), HCT116 cell lysate; assay type: cell-based, human; conditions: at 10 μM; for TNF-α pg/mL (± SEM) HCT116: control 95.74 ± 0.5
VEGFR-2 [11] = target: T1, VEGFR-2; assay: cell-based; assay type: cell-based; conditions: for inhibition at 10 µM: PaCa-2, PaCa2; for VEGFR-2 pg/mL ± SEM PaCa2: at 10 μM, control 326.80 ± 1.9
[12] = MTT, 72 h incubation, HCT116 colon, read-out: IC50, μM ± SEM HCT116
[13] = log of observed IC50 (μM), HCT116, read-out: Log(observed property) (converted)

T1 sequence (P35968 20-1356): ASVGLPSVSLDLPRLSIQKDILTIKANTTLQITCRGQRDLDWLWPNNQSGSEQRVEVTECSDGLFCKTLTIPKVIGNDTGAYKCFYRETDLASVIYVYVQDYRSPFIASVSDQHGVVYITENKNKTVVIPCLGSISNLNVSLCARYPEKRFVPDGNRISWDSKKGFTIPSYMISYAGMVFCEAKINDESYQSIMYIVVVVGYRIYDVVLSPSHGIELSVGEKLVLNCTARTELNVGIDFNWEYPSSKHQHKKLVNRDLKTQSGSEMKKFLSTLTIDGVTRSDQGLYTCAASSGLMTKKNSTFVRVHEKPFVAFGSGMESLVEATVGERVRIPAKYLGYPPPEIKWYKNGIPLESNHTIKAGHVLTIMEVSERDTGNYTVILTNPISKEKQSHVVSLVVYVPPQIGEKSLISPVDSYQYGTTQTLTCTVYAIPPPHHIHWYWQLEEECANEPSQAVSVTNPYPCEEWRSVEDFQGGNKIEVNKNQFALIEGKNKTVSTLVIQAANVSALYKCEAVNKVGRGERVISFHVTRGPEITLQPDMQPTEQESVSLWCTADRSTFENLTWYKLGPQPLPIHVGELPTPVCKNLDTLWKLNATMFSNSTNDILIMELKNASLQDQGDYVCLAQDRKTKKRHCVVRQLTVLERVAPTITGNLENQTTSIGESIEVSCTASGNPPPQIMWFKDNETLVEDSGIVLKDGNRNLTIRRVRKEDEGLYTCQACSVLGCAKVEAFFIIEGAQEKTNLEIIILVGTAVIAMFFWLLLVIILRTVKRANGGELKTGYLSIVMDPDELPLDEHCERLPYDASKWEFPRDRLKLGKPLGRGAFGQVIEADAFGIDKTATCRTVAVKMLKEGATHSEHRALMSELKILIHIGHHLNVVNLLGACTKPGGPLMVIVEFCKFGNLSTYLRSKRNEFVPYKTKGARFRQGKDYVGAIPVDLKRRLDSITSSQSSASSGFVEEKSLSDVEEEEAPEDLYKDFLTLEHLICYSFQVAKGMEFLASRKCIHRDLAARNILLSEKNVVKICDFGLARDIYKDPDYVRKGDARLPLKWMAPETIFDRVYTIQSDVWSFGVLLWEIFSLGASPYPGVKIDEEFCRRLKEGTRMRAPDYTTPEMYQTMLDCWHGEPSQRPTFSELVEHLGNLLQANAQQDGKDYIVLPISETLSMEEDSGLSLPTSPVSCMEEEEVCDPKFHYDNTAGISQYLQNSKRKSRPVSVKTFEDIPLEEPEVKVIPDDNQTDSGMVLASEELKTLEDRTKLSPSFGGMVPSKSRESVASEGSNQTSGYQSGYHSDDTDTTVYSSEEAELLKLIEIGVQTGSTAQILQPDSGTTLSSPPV

Compound	inhibition at 10 µM (VEGFR-2 [1])	VEGFR-2 pg/mL ± SEM MCF7 (VEGFR-2 [1])	TNF-α % inhibition PaCa2 (TNF-α [2])	TNF-α pg/mL (± SEM) PaCa2 (TNF-α [2])	inhibition at 10 µM (COX-1)	TNF-α % inhibition MCF7 (TNF-α [3])	TNF-α pg/mL (± SEM) MCF7 (TNF-α [3])	IC50 [4]	SI (selectivity index) MCF7 [4]	IC50 [5, 12]	SI (selectivity index) HCT116 [5]	IC50 [6]	SI (selectivity index) A549 [6]	1/(observed property) [7]	IC50 [7]	SI (selectivity index) PaCa2 [7]	IC50 [8]	inhibition at 10 µM (VEGFR-2 [9])	VEGFR-2 pg/mL ± SEM HCT116 (VEGFR-2 [9])	TNF-α pg/mL (± SEM) HCT116 (TNF-α [10])	further results
CCOP(=O)(OCC)N1C/C(=C\c2cccs2)C(=O)C2(C1)C(c1cccs1)CN(C)C21C(=O)Nc2ccc(C)cc21 (centres unmarked) [Compound 17t, Diethyl (E)-(1′,5-dimethyl-2,4′′-dioxo-4′-(thiophen-2-yl)-5′′-(thiophen-2-ylmethylene)dispiro[indoline-3,2′-pyrrolidine-3′,3′′-piperidin]-1′′-yl)phosphonate]	62.6%	96.70 ± 1.2 pg/mL	14.3%	95.8 ± 2.5 pg/mL	49.2 ± 1.9%	0.4%	82.91 ± 3.8 pg/mL	6.45 ± 0.111 µM	3.9	7.34 ± 0.161 µM	3.5	14.1 ± 0.201 µM	1.8	0.1056	9.47 ± 0.097 µM	2.7	25.4 ± 0.951 µM	60.8%	124.70 ± 1.3 pg/mL	81.64 ± 2.1 pg/mL	inhibition at 10 µM (COX-2): 63.7 ± 1.7%; SI (selectivity index, COX-2/COX-1) (COX-2): 1.29; TNF-α % inhibition HCT116 (TNF-α [10]): 14.7%; inhibition at 10 µM (VEGFR-2 [11]): 64.8%; VEGFR-2 pg/mL ± SEM PaCa2 (VEGFR-2 [11]): 115.00 ± 0.9 pg/mL
CCOP(=O)(OCC)N1C/C(=C\c2ccc(Br)cc2)C(=O)C2(C1)C(c1ccc(Br)cc1)CN(C)C21C(=O)Nc2ccccc21 (centres unmarked) [Compound 17l, Diethyl (E)-[5′′-(4-bromobenzylidene)-4′-(4-bromophenyl)-1′-methyl-2,4′′-dioxodispiro[indoline-3,2′-pyrrolidine-3′,3′′-piperidin]-1′′-yl]phosphonate]	71.6%	73.50 ± 0.8 pg/mL	66.3%	37.63 ± 0.8 pg/mL	61.6 ± 1.2%	59.6%	33.67 ± 1.7 pg/mL	4.85 ± 0.082 µM	1.6	4.16 ± 0.129 µM	1.9	7.28 ± 0.316 µM	1.1	0.1626	6.15 ± 0.413 µM	1.3	7.85 ± 0.284 µM	73.5%	84.20 ± 1.5 pg/mL	27.34 ± 1.1 pg/mL	IC50 [5, 13]: 4.16 µM; inhibition at 10 µM (COX-2): 50.3 ± 2.3%; SI (selectivity index, COX-2/COX-1) (COX-2): 0.92; inhibition at 10 µM (VEGFR-2 [11]): 73.5%; VEGFR-2 pg/mL ± SEM PaCa2 (VEGFR-2 [11]): 86.45 ± 1.2 pg/mL
CCOP(=O)(OCC)N1C/C(=C\c2ccccc2)C(=O)C2(C1)C(c1ccccc1)CN(C)C21C(=O)Nc2ccc(Cl)cc21 (centres unmarked) [Compound 17c, Diethyl (E)-(5′′-benzylidene-5-chloro-1′-methyl-2,4′′-dioxo-4′-phenyldispiro[indoline-3,2′-pyrrolidine-3′,3′′-piperidin]-1′′-yl)phosphonate]	76.7%	60.40 ± 0.5 pg/mL	69.8%	33.8 ± 2.2 pg/mL	58.6 ± 3.5%	72.2%	23.16 ± 0.7 pg/mL	5.27 ± 0.172 µM	2.6	6.32 ± 0.132 µM	2.2	12.5 ± 0.205 µM	1.1	0.1093	9.15 ± 0.154 µM	1.5	13.8 ± 0.423 µM	86%	44.50 ± 1.1 pg/mL	31.72 ± 1.2 pg/mL	IC50 [5, 13]: 6.32 µM; inhibition at 10 µM (COX-2): 53.9 ± 1.7%; SI (selectivity index, COX-2/COX-1) (COX-2): 1.05; TNF-α % inhibition HCT116 (TNF-α [10]): 66.9%; inhibition at 10 µM (VEGFR-2 [11]): 91.3%; VEGFR-2 pg/mL ± SEM PaCa2 (VEGFR-2 [11]): 28.43 ± 1.0 pg/mL
CC(C)Cc1ccc(C(C)C(=O)O)cc1 (centres unmarked) [Ibuprofen, reference compound]	–	–	42.0%	64.8 ± 0.6 pg/mL	–	7.8%	76.8 ± 2.0 pg/mL	–	–	–	–	–	–	–	–	–	–	–	–	74.5 ± 1.1 pg/mL	TNF-α % inhibition HCT116 (TNF-α [10]): 22.2%
CCOP(=O)(OCC)N1C/C(=C\c2cccs2)C(=O)C2(C1)C(c1cccs1)CN(C)C21C(=O)Nc2ccc(F)cc21 (centres unmarked) [Compound 17r, Diethyl (E)-(5-fluoro-1′-methyl-2,4′′-dioxo-4′-(thiophen-2-yl)-5′′-(thiophen-2-ylmethylene)dispiro[indoline-3,2′-pyrrolidine-3′,3′′-piperidin]-1′′-yl)phosphonate]	67.4%	84.30 ± 1.0 pg/mL	75.4%	27.5 ± 0.5 pg/mL	55.5 ± 2.6%	69.4%	25.46 ± 0.9 pg/mL	6.22 ± 0.082 µM	2.7	7.67 ± 0.379 µM	2.2	14.18 ± 0.135 µM	1.2	0.1206	8.29 ± 0.497 µM	2.1	17 ± 0.557 µM	78.8%	67.34 ± 0.4 pg/mL	27.45 ± 1.4 pg/mL	IC50 [5, 13]: 7.67 µM; inhibition at 10 µM (COX-2): 51.8 ± 2%; SI (selectivity index, COX-2/COX-1) (COX-2): 1.09; inhibition at 10 µM (VEGFR-2 [11]): 79.6%; VEGFR-2 pg/mL ± SEM PaCa2 (VEGFR-2 [11]): 66.53 ± 0.8 pg/mL
COc1ccc2c(c1)c(CC(=O)O)c(C)n2C(=O)c1ccc(Cl)cc1 [Indomethacin, reference compound]	–	–	32.6%	75.3 ± 2.1 pg/mL	–	22.9%	64.2 ± 1.6 pg/mL	–	–	–	–	–	–	–	–	–	–	–	–	54.8 ± 0.7 pg/mL	TNF-α % inhibition HCT116 (TNF-α [10]): 42.8%
